How the values were obtained:
Type in all cases: in vivo
Alternaria solani = Alternaria solani / tomato / preventive (action against Alternaria on tomato); conditions: 96 h, spray, tomato plants cv. Roter Gnom, assessed 4 days after inoculation, read-out: inhibit fungal infestation
Protocol: (§1) Alternaria solani/Tomato/Preventive (Action Against Alternaria on Tomato) 4 weeks old tomato plants cv. Roter Gnom are treated with the formulated test compound in a spray chamber. Two days after application tomato plants are inoculated by spraying a spore suspension on the test plants. After an incubation period of 4 days at 22° C./18° C. and 95% r. h. in a greenhouse the disease incidence is assessed.

Septoria tritici = Septoria tritici / wheat / preventive (action against Septoria leaf spot on wheat); conditions: Zymoseptoria tritici, spray, wheat plants cv. Riband, assessed 16-18 days after inoculation, read-out: inhibits fungal infestation
Protocol: Septoria tritici/Wheat/Preventive (Action Against Septoria Leaf Spot on Wheat) 2 weeks old wheat plants cv. Riband are treated with the formulated test compound in a spray chamber. One day after application wheat plants are inoculated by spraying a spore suspension (10^6 conidia/ml) on the test plants. After an incubation period of 1 day at 22° C./21° C. and 95% r. h. plants are kept at 22° C./21° C. and 70% r.h. in a greenhouse. The disease incidence is assessed 16-18 days after inoculation.

Uncinula necator = Uncinula necator / grape / preventive (action against powdery mildew on grape); conditions: Erysiphe necator, 168 h, spray, grape seedlings cv. Gutedel, assessed 7 days after inoculation, read-out: inhibit fungal infestation
Protocol: Uncinula necator/Grape/Preventive (Action Against Powdery Mildew on Grape) 5 weeks old grape seedlings cv. Gutedel are treated with the formulated test compound in a spray chamber. One day after application grape plants are inoculated by shaking plants infected with grape powdery mildew above the test plants. After an incubation period of 7 days at 24° C./22° C. and 70% r. h. under a light regime of 14/10 h (light/dark) the disease incidence is assessed.

Puccinia recondita = Puccinia recondita / wheat / preventive (action against brown rust on wheat); conditions: 264 h, spray, wheat plants cv. Arina, assessed 11 days after inoculation, read-out: inhibit fungal infestation
Protocol: Puccinia recondita/Wheat/Preventive (Action Against Brown Rust on Wheat) 1 week old wheat plants cv. Arina are treated with the formulated test compound in a spray chamber. One day after application wheat plants are inoculated by spraying a spore suspension ([…] uredospores/ml) on the test plants. After an incubation period of 1 day at 20° C. and 95% r. h. plants are kept for 10 days 20° C./18° C. (day/night) and 60% r.h. in a greenhouse. The disease incidence is assessed 11 days after inoculation.

Botrytis cinerea = Botrytis cinerea / tomato / preventive (action against Botrytis on tomato); conditions: 72 h, spray, tomato plants cv. Roter Gnom, assessed 3 days after inoculation, read-out: inhibit fungal infestation
Protocol: as §1, with “Botrytis cinerea/Tomato/Preventive (Action” for “Alternaria solani/Tomato/Preventive (Action”, “Against Botrytis” for “Against Alternaria”, “of 3” for “of 4”, “at 20°” for “at 22° C./18°”

Measured: inhibition at 200 ppm

Cc1nc(Cl)n(-c2ncc(Cl)cc2Cl)c1-c1ccc(Cl)nc1 [I.s.210, 3,5-Dichloro-2-[2-chloro-5-(6-chloro-pyridin-3-yl)-4-methyl-imidazol-1-yl]-pyridine]
≥ 80%: Alternaria solani | Septoria tritici | Uncinula necator

Cc1nc(Cl)n(-c2ncc(Cl)cc2Cl)c1-c1ccc(Br)cc1 [I.s.035, 2-[5-(4-Bromo-phenyl)-2-chloro-4-methyl-imidazol-1-yl]-3,5-dichloro-pyridine]
not listed: Botrytis cinerea
≥ 80%: all other assays above

Clc1cnc(-n2c(Cl)nc(Cl)c2-c2ccc(Br)cc2)c(Cl)c1 [I.s.034, 2-[5-(4-Bromo-phenyl)-2,4-dichloro-imidazol-1-yl]-3,5-dichloro-pyridine]
not listed: Puccinia recondita
≥ 80%: all other assays above

From patent US20110224252A1, “NOVEL IMIDAZOLE DERIVATIVES” (SYNGENTA CROP PROTECTION, INC., priority 2007, published 2011)
